This is an account of results in patent US4113774A, “N-(Dichloroacetyl) diamine compounds and process of preparing same” (Sterling Drug Inc., priority 1977, dated 1978).

For series [1], the target named is liver acetaldehyde dehydrogenase. The series can be described thus: Inhibition of liver acetaldehyde dehydrogenase (I50). It is filed as biochemical. The following applies: bovine liver enzyme, propionaldehyde substrate, NAD, pH 9.6, 26.0 °C, 15 minutes; read-out: I50 values (molar concentration for 50% inhibition) for inhibition of liver acetaldehyde dehydrogenase. An excerpt: The specific activity of the partially purified enzyme preparation was 172 units per milligram of protein. The assay system contained 30μ moles of sodium pyrophosphate buffer with a final pH of 9.6, 135μ moles of propylene glycol to serve as a vehicle for the compound being tested, 0.5μ mole of propionaldehyde, 1μ mole of nicotinamide adenine dinucleotide and 120 units of enzyme to initiate the reaction in a total volume of 3.0 milliliters. The assay mixture was contained in 1 centimeter silica cuvettes. The reaction was followed by measuring the increase in optical density at 340 mμ with time on the Beckman du spectrophotometer which was equipped with dual thermospacers set to maintain the temperature of the cell compartment at 26.0 ± 0.1° C. by means of a circulating water bath (Haake Thermostat F, Berlin). Readings of optical density were taken each minute for 15 minutes. The optical density at 15 minutes corrected for optical density at zero time was used to calculate percent inhibition compared with controls which contained all constituents except the compound being tested. Fifty percent inhibition values (I50) were determined from first order reaction plots at multiple levels of the tested compound. Sodium pyrophosphate changes pH when diluted with the other reaction constitutents in water; so, this effect was compensated for to bring the final pH of the incubation mixture to 9.6.

The subject of another series is aldehyde dehydrogenase. The following applies: cited from earlier work; for effectiveness compared with disulfiram: evaluation said to considerably underestimate effectiveness.
The conditions of series [2]: man and animals; cited from earlier work.
Series [3] concerns antispermatogenic activity. The following applies: cited from earlier work.
The test system of another series is spermatogenesis. The following applies: cited from earlier work.
Series [4] deals with antispermatogenic activity. The following applies: Coulston et al.; Surrey U.S. Pat. No. 3,143,566; cited from earlier work.
In the next series the test system is E. criceti. The following applies: cited from earlier work.

Turning to `O=C(NCCCCCCCCNC(=O)C(Cl)Cl)c1ccc(Cl)cc1` [Example B-1, N-(dichloroacetyl)-N'-(4-chlorobenzoyl)-1,8-octanediamine], the IC50 in series [1] turned out to be 2.7 µM.

Turning to `O=C(NCCCCCCCCNC(=O)C(Cl)Cl)c1ccc(Cl)c(Cl)c1` [Example B-2, N-(Dichloroacetyl)-N'-(3,4-dichlorobenzoyl)-1,8-octanediamine], the IC50 in series [1] was 0.82 µM.

Turning to `CCN(Cc1ccc(CN(CC)C(=O)C(Cl)Cl)cc1)C(=O)C(Cl)Cl` [Win 13,099, N,N'-bis(dichloroacetyl)-N,N'-diethyl-1,4-bis(aminomethyl)benzene], the “effectiveness compared with disulfiram” value in the series on aldehyde dehydrogenase is recorded as “about as effective as disulfiram”. Also, in series [2], the side effect entry was “a reaction to ethanol in man and animals”.

With `O=C(NCCCCCCCCNC(=O)C(Cl)Cl)C(Cl)Cl` [Win 18,466, N,N'-Bis(dichloroacetyl)-1,8-octanediamine], in the series with aldehyde dehydrogenase, the “inhibitor of aldehyde dehydrogenase” value was “to be an inhibitor of aldehyde dehydrogenase” and the “effectiveness compared with disulfiram” value is reported as “about as effective as disulfiram”. Also, in series [2], the side effect result is “a reaction to ethanol in man and animals”. In series [3], the “antispermatogenic activity in rats” value is “to have antispermatogenic activity in rats”. Besides, in the series on spermatogenesis, the “suppression of spermatogenesis in man” value is on record as “to suppress spermatogenesis in man”. The antispermatogenic activity result in series [4] is recorded as “highly antispermatogenically-active”. In addition, the “in vivo amebicidal activity against E. criceti in hamsters” value in the series with E. criceti is reported as “not to have in vivo amebicidal activity”.

For the compound `CCN(CC)C(=S)SSC(=S)N(CC)CC` [disulfiram, bis(diethylthiocarbamoyl) disulfide], the IC50 in series [1] worked out at 13 µM.
